# From ChEMBL document CHEMBL5346934 (J Med Chem, 2023)
# pEC50, pIC50: −log10 of the molar value.
# Assays:
# Vaccinia virus [1] = assay: Antiviral activity against Vaccinia virus Copenhagen infected in human HFF cells assessed as assessed as reduction in virus-induced cytopathic effect incubated for 7 days by microscopic analysis; assay type: functional, organism-based; details: Orthopoxvirus vaccinia, 168 h
# Vaccinia virus [2] = assay: Antiviral activity against Vaccinia virus VG9 infected in African green monkey BSC-1 cells; assay type: functional, organism-based, Orthopoxvirus vaccinia
# Vaccinia virus [3] = assay: Antiviral activity against Vaccinia virus infected in African green monkey BSC-1 cells; assay type: functional, organism-based, Orthopoxvirus vaccinia
# Cowpox virus = assay: Antiviral activity against Cowpox virus Grishak infected in African green monkey Vero cells measured after 4 days by colorimetric assay; assay type: functional, organism-based; details: 96 h
# Ectromelia virus = assay: Antiviral activity against ectromelia virus K-1 infected in Vero cells measured after 4 days by colorimetric assay; assay type: functional, organism-based; details: K-1, Vero, 96 h
# Vaccinia virus [4] = assay: Antiviral activity against Vaccinia virus Copenhagen infected in African green monkey Vero cells measured after 4 days by colorimetric assay; assay type: functional, organism-based; details: Orthopoxvirus vaccinia, 96 h
# Vaccinia virus [5] = assay: Antiviral activity against Vaccinia virus infected in African green monkey CV-1 cells assessed as reduction in virus-induced cytopathic effect incubated for 5 days by colorimetric analysis; assay type: functional, organism-based; details: Orthopoxvirus vaccinia, CV-1, 120 h
# Vaccinia virus [6] = assay: Antiviral activity against Vaccinia virus infected in African green monkey Vero cells assessed as reduction virus induced cytopathic effect incubated for 24 hrs by MTT assay; assay type: functional, organism-based; details: Orthopoxvirus vaccinia
# HEL = assay: Cytotoxicity against human HEL cells assessed as reduction in cell growth; assay type: functional
# Vaccinia virus [7] = assay: Antiviral activity against Vaccinia virus infected in human HEL cells; assay type: functional, organism-based; details: Orthopoxvirus vaccinia
# [8] = Orthopoxvirus vaccinia, VG9, BSC-1
compound,measurement,setting,value
CCOc1ccc2c(c1)[C@H]1C=CC[C@H]1[C@H](c1ccccc1Cl)N2,pEC50,Vaccinia virus [1],4.86
C#C[C@]1(OC(=O)CCCCCC)CC[C@H]2[C@@H]3CCC4=CC(=O)CC[C@@H]4[C@H]3CC[C@@H]21,pEC50,Vaccinia virus [2]; [8],5.57
same,pEC50,"Vaccinia virus [3]; Orthopoxvirus vaccinia, BSC-1",5.41
RAUWOLFIA SERPENTINA,pEC50,Vaccinia virus [2]; bsc-1,5.01
same,pEC50,Vaccinia virus [3]; bsc-1,5.04
COc1c(C)c2c(c(O)c1C/C=C(\C)CCC(=O)OCCN1CCOCC1)C(=O)OC2 [MYCOPHENOLATE MOFETIL],pEC50,Vaccinia virus [2]; [8],7.00
same,pEC50,"Vaccinia virus [3]; Orthopoxvirus vaccinia, BSC-1",6.70
CC1(C)[C@@H]2CC=C(CCNC(=O)C34CC5CC(CC(C5)C3)C4)[C@H]1C2,pIC50,Cowpox virus,5.39
same,pIC50,Ectromelia virus,5.80
same,pIC50,Vaccinia virus [4],5.74
CC[C@H]1CN2CCc3cc(OC)c(OC)cc3[C@@H]2CC1C[C@H]1NCCc2cc(O)c(OC)cc21 (stereo partly drawn),pEC50,Vaccinia virus [5],6.90
CC1(C)[C@@H]2CC[C@@]1(C)[C@@H](NC(=O)c1ccc(Br)cc1)C2,pIC50,Cowpox virus,5.72
same,pIC50,Ectromelia virus,6.15
same,pIC50,Vaccinia virus [4],6.44
Cc1cccc(C)c1NC(=O)C(=O)NN1C(=O)C2C3C=CC(C4CC34)C2C1=O (stereo not drawn),IC50,Vaccinia virus [4],1.28 µg/mL
CC[C@H]1CN2CCc3cc(OC)c(OC)cc3[C@@H]2C[C@@H]1C[C@H]1NCCc2cc(OC)c(OC)cc21 [EMETINE],pEC50,Vaccinia virus [5],6.60
O=C(NN1C(=O)C2C3C=CC(C4CC34)C2C1=O)c1cc(Cl)cc(Cl)c1 (stereo not drawn),IC50,Vaccinia virus [4],0.95 µg/mL
CC(=O)O[C@H]1C[C@H](O[C@H]2[C@@H](O)C[C@H](O[C@H]3[C@@H](O)C[C@H](O[C@H]4CC[C@@]5(C)[C@H](CC[C@@H]6[C@@H]5C[C@@H](O)[C@]5(C)[C@@H](C7=CC(=O)OC7)CC[C@]65O)C4)O[C@@H]3C)O[C@@H]2C)O[C@H](C)[C@H]1O[C@@H]1O[C@H](CO)[C@@H](O)[C@H](O)[C@H]1O [LANATOSIDE C],pEC50,Vaccinia virus [5],6.30
O=C(NN1C(=O)C2C3C=CC(C4CC34)C2C1=O)c1ccc(O)c([N+](=O)[O-])c1 (stereo not drawn),IC50,Vaccinia virus [4],0.38 µg/mL
N#CC1(c2ccc(NC(=O)c3cccnc3NCc3ccncc3)cc2)CCCC1 [RIVOCERANIB],pEC50,Vaccinia virus [2]; [8],5.57
same,pEC50,"Vaccinia virus [3]; Orthopoxvirus vaccinia, BSC-1",5.60
CCOC(=O)c1c(CSc2ccccc2)n(C)c2cc(Br)c(O)c(CN(C)C)c12 [UMIFENOVIR],pEC50,Vaccinia virus [2]; [8],5.01
same,pEC50,"Vaccinia virus [3]; Orthopoxvirus vaccinia, BSC-1",5.18
N=c1ccn2c(n1)O[C@H]1[C@H](O)[C@@H](CO)O[C@H]12 [ANCITABINE],pEC50,Vaccinia virus [5],5.00
CCCCCCCCCCOc1ccc(C(=O)NN2C(=O)C3C4C=CC(C5CC45)C3C2=O)cc1 (stereo not drawn),IC50,Vaccinia virus [4],1.7 µg/mL
CCCCCCCCCCCCCCCCOCCCOP1(=O)COCC(Cn2ccc(N)nc2=O)O1 (stereo not drawn),pEC50,Vaccinia virus [6],5.42
CN(Cc1cnc2nc(N)nc(N)c2n1)c1ccc(C(=O)N[C@@H](CCC(=O)O)C(=O)O)cc1 [METHOTREXATE],pEC50,Vaccinia virus [2]; [8],5.21
same,pEC50,"Vaccinia virus [3]; Orthopoxvirus vaccinia, BSC-1",5.66
CC1(C)[C@@H]2CC[C@@]1(C)[C@H](NC(=O)c1ccc(Cl)cc1)C2,pIC50,Cowpox virus,5.04
same,pIC50,Ectromelia virus,5.48
same,pIC50,Vaccinia virus [4],6.22
C[C@@H]1C[C@@H]([C@H](O)CC2CC(=O)NC(=O)C2)C(=O)[C@@H](C)C1 [CYCLOHEXIMIDE],pEC50,Vaccinia virus [5],5.70
CC1(C)[C@@H]2CC[C@@]1(C)[C@H](NC(=O)c1ccc([N+](=O)[O-])cc1)C2,pIC50,Cowpox virus,4.74
same,pIC50,Ectromelia virus,5.10
same,pIC50,Vaccinia virus [4],6.05
CCCCCCCCCCCC[N+]12CC[N+](CC#CC[N+]34CC[N+](CCCCCCCCCCCC)(CC3)CC4)(CC1)CC2,pEC50,Vaccinia virus [5],4.00
O=C(Nc1cccc(C(F)(F)F)c1)C(=O)NN1C(=O)C2C3C=CC(C4CC34)C2C1=O (stereo not drawn),IC50,Vaccinia virus [4],1.3 µg/mL
CC1(C)[C@@H]2CC[C@@]1(C)[C@@H](NC(=O)C1CCCCC1)C2,pIC50,Cowpox virus,4.84
same,pIC50,Ectromelia virus,5.21
same,pIC50,Vaccinia virus [4],5.85
O=C1N(Nc2ccc(Cl)cc2)C(=O)C23C4C=CC5C4C4C(C=CC42)C153,CC50,HEL,> 100000 nM
same,pIC50,Vaccinia virus [7],5.08
CC(=O)C1=C2C=CCCN2C(=O)NC1c1ccccc1Br (stereo not drawn),pIC50,Vaccinia virus [6],6.52
CC1(C)[C@@H]2CC[C@@]1(C)[C@@H](NC(=O)c1ccc([N+](=O)[O-])cc1)C2,pIC50,Cowpox virus,5.85
same,pIC50,Ectromelia virus,6.39
same,pIC50,Vaccinia virus [4],7.52
COc1ccc(/C=C/C(=O)Nc2ccccc2C(=O)O)cc1OC [TRANILAST],pEC50,Vaccinia virus [2]; [8],6.10
same,pEC50,"Vaccinia virus [3]; Orthopoxvirus vaccinia, BSC-1",6.05
CC1(C)[C@@H]2CC[C@@]1(C)[C@@H](NC(=O)c1ccc(C(F)(F)F)cc1)C2,pIC50,Cowpox virus,5.21
same,pIC50,Ectromelia virus,5.16
same,pIC50,Vaccinia virus [4],6.22
Cc1cc(NN2C(=O)C34C5C=CC6C5C5C3C=CC5C64C2=O)ccc1[N+](=O)[O-],CC50,HEL,> 100000 nM
same,pIC50,Vaccinia virus [7],5.52
C[C@H]1O[C@@H](O[C@H]2[C@@H](O)C[C@H](O[C@H]3[C@@H](O)C[C@H](O[C@H]4CC[C@@]5(C)[C@H](CC[C@@H]6[C@@H]5C[C@@H](O)[C@]5(C)[C@@H](C7=CC(=O)OC7)CC[C@]65O)C4)O[C@@H]3C)O[C@@H]2C)C[C@H](O)[C@@H]1O [DIGOXIN],pEC50,Vaccinia virus [5],6.60
O=C1N(Nc2ccc(Cl)c(Cl)c2)C(=O)C23C4C=CC5C4C4C(C=CC42)C153,CC50,HEL,> 100000 nM
same,pIC50,Vaccinia virus [7],6.32
CC1(C)/C(=N\NC(=O)c2ccc(Cl)cc2)[C@]2(C)CC[C@H]1C2,pIC50,Cowpox virus,5.31
same,pIC50,Ectromelia virus,5.10
same,pIC50,Vaccinia virus [4],6.05
CC1(C)[C@@H]2CC[C@@]1(C)[C@@H](NC(=O)c1ccc(Cl)cc1)C2,pIC50,Cowpox virus,5.62
same,pIC50,Ectromelia virus,6.22
same,pIC50,Vaccinia virus [4],6.62
C[C@@H]1O[C@@H](O[C@H]2C[C@@H](O)[C@]3(CO)[C@H]4[C@H](O)C[C@]5(C)[C@@H](C6=CC(=O)OC6)CC[C@]5(O)[C@@H]4CC[C@]3(O)C2)[C@H](O)[C@H](O)[C@H]1O [OUABAIN],pEC50,Vaccinia virus [5],6.60
COc1ccc(C[C@H]2NC[C@H](O)[C@H]2OC(C)=O)cc1 [ANISOMYCIN],pEC50,Vaccinia virus [5],6.60
O=C1N(Nc2ccc(Br)c(Cl)c2)C(=O)C23C4C=CC5C4C4C(C=CC42)C153,CC50,HEL,> 100000 nM
same,pIC50,Vaccinia virus [7],6.22
Cc1cc(C2CCCCC2)n(O)c(=O)c1 [CICLOPIROX],pEC50,Vaccinia virus [2]; [8],5.16
same,pEC50,"Vaccinia virus [3]; Orthopoxvirus vaccinia, BSC-1",5.24
O=C1N(Nc2ccc(Cl)c(Br)c2)C(=O)C23C4C=CC5C4C4C(C=CC42)C153,CC50,HEL,> 100000 nM
same,pIC50,Vaccinia virus [7],6.80
O=C1N(Nc2ccc(Cl)c(C(F)(F)F)c2)C(=O)C23C4C=CC5C4C4C(C=CC42)C153,CC50,HEL,> 100000 nM
same,pIC50,Vaccinia virus [7],6.10
CCCCCCCCCCCCCCCCCCOCCOP(=O)(O)CO[C@H](CO)Cn1ccc(N)nc1=O,pEC50,Vaccinia virus [6],6.70
O=C1N(Nc2ccc(C(F)(F)F)cc2)C(=O)C23C4C=CC5C4C4C(C=CC42)C153,CC50,HEL,> 100000 nM
same,pIC50,Vaccinia virus [7],5.92
COC(=O)Nc1nc2cc(C(=O)c3ccccc3)ccc2[nH]1 [MEBENDAZOLE],pEC50,Vaccinia virus [2]; [8],5.04
same,pEC50,"Vaccinia virus [3]; Orthopoxvirus vaccinia, BSC-1",5.25
O=C(NN1C(=O)C2C3C=CC(C4CC34)C2C1=O)c1cc(Br)cc(Br)c1O (stereo not drawn),IC50,Vaccinia virus [4],1.05 µg/mL
O=C1N(Nc2ccc(Br)cc2)C(=O)C23C4C=CC5C4C4C(C=CC42)C153,CC50,HEL,> 100000 nM
same,pIC50,Vaccinia virus [7],5.14
COc1c(C)c2c(c(O)c1C/C=C(\C)CCC(=O)O)C(=O)OC2 [MYCOPHENOLIC ACID],pEC50,Vaccinia virus [5],6.00
CC1(C)[C@@H]2CC=C(CNC(=O)C34CC5CC(CC(C5)C3)C4)[C@H]1C2,pIC50,Cowpox virus,5.33
same,pIC50,Ectromelia virus,5.57
same,pIC50,Vaccinia virus [4],5.77
CC1(C)[C@@H]2CC[C@@]1(C)/C(=N/NC(=O)C1CCC(F)(F)CC1)C2,pIC50,Cowpox virus,5.08
same,pIC50,Ectromelia virus,5.11
same,pIC50,Vaccinia virus [4],5.74
CCCCCCCCCCCCCCCCCCOCCOP1(=O)COCC(Cn2ccc(N)nc2=O)O1 (stereo not drawn),pEC50,Vaccinia virus [6],5.96
CC1(C)[C@@H]2CC=C(C(=O)NC34CC5CC(CC(C5)C3)C4)[C@H]1C2,pIC50,Cowpox virus,5.14
same,pIC50,Ectromelia virus,5.77
same,pIC50,Vaccinia virus [4],5.60
O=C1N(Nc2ccc([N+](=O)[O-])cc2)C(=O)C23C4C=CC5C4C4C(C=CC42)C153,CC50,HEL,> 100000 nM
same,pIC50,Vaccinia virus [7],5.52
CO[C@H]1C[C@H](O[C@H]2CC[C@]3(C=O)[C@H]4CC[C@]5(C)[C@@H](C6=CC(=O)OC6)CC[C@]5(O)[C@@H]4CC[C@]3(O)C2)O[C@H](C)[C@H]1O [CYMARIN],pEC50,Vaccinia virus [5],6.60
CC(=O)C1=C2C=CCCN2C(=O)NC1c1ccccc1 (stereo not drawn),pIC50,Vaccinia virus [6],5.23
CC(=O)C1=C2C=CCCN2C(=O)NC1c1cccc(F)c1 (stereo not drawn),pIC50,Vaccinia virus [6],7.00
CO[C@H]1[C@H](O)[C@H](O[C@H]2CC[C@@]3(C)[C@H](CC[C@@H]4[C@@H]3CC[C@]3(C)[C@@H](C5=CC(=O)OC5)CC[C@]43O)C2)O[C@@H](C)[C@@H]1O [NERIIFOLIN],pEC50,Vaccinia virus [5],5.30
CCCCCCCCCCCCCC[N+]12CC[N+](CCCC(=O)N[C@@H](Cc3c[nH]cn3)C(=O)O)(CC1)CC2,pEC50,Vaccinia virus [5],3.40
